In US20230023559A1, “ARYLMETHYLENE HETEROCYCLIC COMPOUNDS AS KV1.3 POTASSIUM SHAKER CHANNEL BLOCKERS” (D. E. Shaw Research, LLC, priority 2019, published 2023):
Values belong to the molecule of their own block, whether it stands above or below them.

Experiments:
hERG channel = hERG channel (Homo sapiens, UniProt Q12809); test: hERG electrophysiology, automated whole-cell patch clamp (Patchliner)
Kv1.3 potassium channel = target: T1, Kv1.3 potassium channel (Homo sapiens, UniProt P22001); test: Kv1.3 potassium channel blocker activity, automated whole-cell patch clamp (Patchliner); assay type: cell-based; conditions: CHO-K1 cells stably expressing Kv1.3; whole cell current inhibition; read-out: Kv1.3_IC50
T1 construct: expressed in transfected cells
T1 sequence (P22001 whole entry): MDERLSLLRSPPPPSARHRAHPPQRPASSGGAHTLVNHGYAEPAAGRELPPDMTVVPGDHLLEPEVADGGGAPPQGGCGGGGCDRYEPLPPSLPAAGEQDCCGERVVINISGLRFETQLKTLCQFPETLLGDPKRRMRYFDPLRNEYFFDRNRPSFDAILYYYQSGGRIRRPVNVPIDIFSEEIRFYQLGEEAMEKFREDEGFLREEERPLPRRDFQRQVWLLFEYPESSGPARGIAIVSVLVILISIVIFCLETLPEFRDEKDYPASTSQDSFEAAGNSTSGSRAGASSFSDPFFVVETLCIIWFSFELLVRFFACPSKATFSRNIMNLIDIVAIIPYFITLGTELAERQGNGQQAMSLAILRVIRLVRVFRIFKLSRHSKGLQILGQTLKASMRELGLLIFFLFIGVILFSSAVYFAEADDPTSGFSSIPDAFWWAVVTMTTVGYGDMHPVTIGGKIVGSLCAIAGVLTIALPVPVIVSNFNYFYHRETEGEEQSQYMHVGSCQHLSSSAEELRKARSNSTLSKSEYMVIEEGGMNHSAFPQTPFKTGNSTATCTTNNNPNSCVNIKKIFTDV
How it was run: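 Peak-current block was recorded on stable Kv1.3 CHO-K1 cells by automated patch clamp, stepping from a −90 mV holding potential to +40 mV for 100 ms at 0.1 Hz with 10 s breaks between trains. Online P/4 leak subtraction, 10 kHz sampling; compound exposure under 10 s per train.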

Chain of hERG channel (Q12809 whole entry): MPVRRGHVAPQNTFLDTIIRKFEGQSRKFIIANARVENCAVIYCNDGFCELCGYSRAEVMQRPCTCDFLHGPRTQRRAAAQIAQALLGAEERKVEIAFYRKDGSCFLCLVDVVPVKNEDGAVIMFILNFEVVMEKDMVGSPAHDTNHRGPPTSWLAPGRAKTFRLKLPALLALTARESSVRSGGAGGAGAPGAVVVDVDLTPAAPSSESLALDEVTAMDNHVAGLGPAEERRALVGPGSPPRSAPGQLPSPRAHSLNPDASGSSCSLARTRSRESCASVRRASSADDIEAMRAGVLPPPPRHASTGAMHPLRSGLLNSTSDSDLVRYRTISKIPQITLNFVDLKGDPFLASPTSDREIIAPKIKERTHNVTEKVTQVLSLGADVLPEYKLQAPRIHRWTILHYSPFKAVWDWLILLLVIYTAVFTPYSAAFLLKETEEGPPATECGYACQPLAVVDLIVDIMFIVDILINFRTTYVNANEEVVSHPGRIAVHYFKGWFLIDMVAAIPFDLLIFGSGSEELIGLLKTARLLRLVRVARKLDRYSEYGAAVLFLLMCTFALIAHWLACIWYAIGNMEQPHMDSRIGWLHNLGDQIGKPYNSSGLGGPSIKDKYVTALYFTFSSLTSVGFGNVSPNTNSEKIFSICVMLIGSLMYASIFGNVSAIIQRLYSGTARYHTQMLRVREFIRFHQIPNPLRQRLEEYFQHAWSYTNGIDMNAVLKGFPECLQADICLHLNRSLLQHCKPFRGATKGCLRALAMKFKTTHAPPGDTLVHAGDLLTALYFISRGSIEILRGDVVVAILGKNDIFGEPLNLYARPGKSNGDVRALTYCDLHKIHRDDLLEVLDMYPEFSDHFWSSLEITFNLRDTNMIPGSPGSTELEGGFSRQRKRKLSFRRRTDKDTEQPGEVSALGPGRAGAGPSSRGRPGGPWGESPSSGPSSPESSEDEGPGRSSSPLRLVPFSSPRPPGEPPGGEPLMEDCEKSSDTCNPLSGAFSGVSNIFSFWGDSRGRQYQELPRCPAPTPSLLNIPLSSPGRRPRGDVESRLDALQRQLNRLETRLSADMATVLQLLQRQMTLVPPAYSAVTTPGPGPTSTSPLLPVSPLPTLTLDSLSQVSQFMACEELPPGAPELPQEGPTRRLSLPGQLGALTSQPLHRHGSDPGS

Structure (SMILES): N[C@@H](c1cc(Cl)c(Cl)cc1O)C1CCN(C(=O)[C@H]2COCCO2)CC1 [Compound 169, 2-[(R)-amino([1-[(2R)-1,4-dioxane-2-carbonyl]piperidin-4-yl])methyl]-4,5-dichlorophenol trifluoroacetic acid]
IC50 (hERG channel): < 30 µM
IC50 (Kv1.3 potassium channel): < 10000 nM

Structure (SMILES): C[C@](O)(CO)C(=O)N1CCC([C@@H](N)c2cc(Cl)c(Cl)cc2O)CC1 (single isomer, unassigned; isomer 2) [Compound 218]
IC50 (hERG channel): > 30 µM
IC50 (Kv1.3 potassium channel): < 10000 nM

Structure (SMILES): COC[C@@H](O)C(=O)N1CCC([C@@H](N)c2cc(Cl)c(Cl)cc2O)CC1 [Compound 197, (2R)-1-[4-[(R)-amino(4,5-dichloro-2-hydroxyphenyl)methyl]piperidin-1-yl]-2-hydroxy-3-methoxypropan-1-one trifluoroacetic acid]
IC50 (hERG channel): > 30 µM
IC50 (Kv1.3 potassium channel): < 10000 nM

Structure (SMILES): NC(=O)N1CCC([C@@H](N)c2cc(Cl)c(Cl)cc2O)CC1 (single isomer, unassigned) [Compound 82]
IC50 (hERG channel): > 30 µM
IC50 (Kv1.3 potassium channel): < 10000 nM

Structure (SMILES): N[C@@H](c1cc(Cl)c(Cl)cc1O)[C@H]1CCNC1 (single isomer, unassigned; diastereoisomer 1) [Compound 32, 2-(amino(pyrrolidin-3-yl)methyl)-4,5-dichlorophenol Trifluoroacetic Acid Diastereoisomer 1]
IC50 (hERG channel): > 30 µM
IC50 (Kv1.3 potassium channel): < 10000 nM

Structure (SMILES): N[C@@H](c1cc(Cl)c(Cl)cc1O)C1CCN(C(=O)[C@@H]2COCCO2)CC1 [Compound 170, 2-[(R)-amino([1-[(2S)-1,4-dioxane-2-carbonyl]piperidin-4-yl])methyl]-4,5-dichlorophenol trifluoroacetic acid]
IC50 (hERG channel): < 30 µM
IC50 (Kv1.3 potassium channel): < 10000 nM

Structure (SMILES): Nc1ccc(N2CCC([C@@H](N)c3cc(Cl)c(Cl)cc3O)CC2)nc1 [Compound 147, (R)-2-(amino(1-(5-aminopyridin-2-yl)piperidin-4-yl)methyl)-4,5-dichlorophenol Trifluoroacetic Acid]
IC50 (hERG channel): < 30 µM
IC50 (Kv1.3 potassium channel): < 500 nM

Structure (SMILES): C[C@]1(C(=O)N2CCC([C@@H](N)c3cc(Cl)c(Cl)cc3O)CC2)CCCN1 [Compound 96]
IC50 (hERG channel): > 30 µM
IC50 (Kv1.3 potassium channel): < 500 nM

Structure (SMILES): N#CC1(C(=O)N2CCC(C(N)c3cc(Cl)c(Cl)cc3O)CC2)CC1 (stereo not drawn) [Compound 48, 1-(4-(amino(4,5-dichloro-2-hydroxyphenyl)methyl)piperidine-1-carbonyl)cyclopropanecarbonitrile Trifluoroacetic Acid]
IC50 (hERG channel): < 30 µM
IC50 (Kv1.3 potassium channel): < 500 nM

Structure (SMILES): Cc1n[nH]c(C)c1C(=O)N1CCC([C@@H](N)c2cc(Cl)c(Cl)cc2O)CC1 [Compound 159, 2-[(R)-amino[1-(3,5-dimethyl-1H-pyrazole-4-carbonyl)piperidin-4-yl]methyl]-4,5-dichlorophenol]
IC50 (hERG channel): > 30 µM
IC50 (Kv1.3 potassium channel): < 10000 nM

Structure (SMILES): NC(c1cc(Cl)c(Cl)cc1O)C1CCN(C(=O)CO)CC1 (stereo not drawn) [Compound 47, 1-[4-[amino(4,5-dichloro-2-hydroxyphenyl)methyl]piperidin-1-yl]-2-hydroxyethan-1-one]
IC50 (hERG channel): > 30 µM
IC50 (Kv1.3 potassium channel): < 500 nM

Structure (SMILES): C[C@@H](O)[C@@H](O)C(=O)N1CCC([C@@H](N)c2cc(Cl)c(Cl)cc2O)CC1 (mixture of isomers) [Compound 281, 1-[4-[(R)-amino(4,5-dichloro-2-hydroxyphenyl)methyl]piperidin-1-yl]-(2R,3R)-rel-dihydroxybutan-1-one trifluoro-acetic acid]
IC50 (hERG channel): > 30 µM
IC50 (Kv1.3 potassium channel): < 500 nM

Structure (SMILES): Nc1nnc(N2CCC([C@@H](N)c3cc(Cl)c(Cl)cc3O)CC2)s1 [Compound 151, 2-[(R)-amino[1-(5-amino-1,3,4-thiadiazol-2-yl)piperidin-4-yl]methyl]-4,5-dichlorophenol Trifluoroacetic Acid]
IC50 (hERG channel): < 30 µM
IC50 (Kv1.3 potassium channel): < 10000 nM

Structure (SMILES): N[C@@H](c1cc(Cl)c(Cl)cc1O)C1CCN(C(=O)C2CCC(=O)NC2)CC1 (stereo partly drawn) [Compound 299, 5-[4-[(R)-amino(4,5-dichloro-2-hydroxyphenyl)methyl]piperidine-1-carbonyl]piperidin-2-one Trifluoroacetic Acid]
IC50 (hERG channel): > 30 µM
IC50 (Kv1.3 potassium channel): < 500 nM

Structure (SMILES): NC(=O)N1CCC(C(N)c2cc(Cl)c(Cl)cc2O)CC1 (stereo not drawn) [Compound 53, 4-[amino(4,5-dichloro-2-hydroxyphenyl)methyl]piperidine-1-carboxamide]
IC50 (hERG channel): > 30 µM
IC50 (Kv1.3 potassium channel): < 500 nM

Structure (SMILES): N[C@@H](c1cc(Cl)c(Cl)cc1O)C1CCN(S(=O)(=O)C2CCNC2)CC1 (stereo partly drawn) [Compound 110, 2-[(R)-amino[1-(pyrrolidine-3-sulfonyl)piperidin-4-yl]methyl]-4,5-dichlorophenol]
IC50 (hERG channel): > 30 µM
IC50 (Kv1.3 potassium channel): < 500 nM

Structure (SMILES): N[C@@H](c1cc(Cl)c(Cl)cc1O)C1CCN(C(=O)C2(F)CNC2)CC1 [Compound 114, 2-[(R)-amino[1-(3-fluoroazetidine-3-carbonyl)piperidin-4-yl]methyl]-4,5-dichlorophenol]
IC50 (hERG channel): > 30 µM
IC50 (Kv1.3 potassium channel): < 500 nM

Structure (SMILES): C[C@H](O)[C@@H](N)C(=O)N1CCC([C@@H](N)c2cc(Cl)c(Cl)cc2O)CC1 [Compound 173, (2R,3S)-2-amino-1-(4-((R)-amino(4,5-dichloro-2-hydroxyphenyl)methyl)piperidin-1-yl)-3-hydroxybutan-1-one bis (trifluoroacetic acid)]
IC50 (hERG channel): > 30 µM
IC50 (Kv1.3 potassium channel): < 500 nM

Structure (SMILES): N[C@@H](c1cc(Cl)c(Cl)cc1O)C1CCN(C(=O)C(O)CO)CC1 (stereo partly drawn) [Compound 117, 1-(4-((R)-amino(4,5-dichloro-2-hydroxyphenyl)methyl)piperidin-1-yl)-2,3-dihydroxypropan-1-one]
IC50 (hERG channel): > 30 µM
IC50 (Kv1.3 potassium channel): < 500 nM

Structure (SMILES): N[C@@H](c1cc(Cl)c(Cl)cc1O)C1CCN(C(=O)[C@H]2CNC(=O)CO2)CC1 (single isomer, unassigned; isomer 2) [Compound 276]
IC50 (hERG channel): > 30 µM
IC50 (Kv1.3 potassium channel): < 500 nM

Structure (SMILES): N[C@@H](c1cc(Cl)c(Cl)cc1O)C1CCN(C(=O)c2nnc[nH]2)CC1 [Compound 152, (R)-(4-(amino(4,5-dichloro-2-hydroxyphenyl)methyl)piperidin-1-yl)(1H-1,2,4-triazol-3-yl)methanone trifluoroacetic acid]
IC50 (hERG channel): > 30 µM
IC50 (Kv1.3 potassium channel): < 10000 nM

Structure (SMILES): Cc1cc(O)c([C@H](N)C2CCN(C(=O)[C@H](O)CO)CC2)cc1C [Compound 293, (2R)-1-[4-[(R)-amino(2-hydroxy-4,5-dimethylphenyl)methyl]piperidin-1-yl]-2,3-dihydroxypropan-1-one Trifluoroacetic Acid]
IC50 (hERG channel): > 30 µM
IC50 (Kv1.3 potassium channel): < 500 nM

Structure (SMILES): N[C@@H](c1cc(Cl)c(Cl)cc1O)C1CCN(C(=O)[C@@H]2CNC(=O)OC2)CC1 (single isomer, unassigned; isomer 2) [Compound 210]
IC50 (hERG channel): > 30 µM
IC50 (Kv1.3 potassium channel): < 500 nM

Continued, in another order:

IC50 (Kv1.3 potassium channel): < 500 nM
Structure (SMILES): N[C@@H](c1cc(Cl)c(C2CC2)cc1O)C1CCN(C(=O)[C@H](O)CO)CC1 [Compound 289, (2R)-1-[4-[(R)-amino(5-chloro-4-cyclopropyl-2-hydroxyphenyl)methyl]piperidin-1-yl]-2,3-dihydroxypropan-1-one]
IC50 (hERG channel): > 30 µM

IC50 (Kv1.3 potassium channel): < 500 nM
Structure (SMILES): N[C@@H](c1cc(Cl)c(Cl)cc1O)C1CCN(C(=O)[C@H]2CCC(=O)N2)CC1 [Compound 165, (5R)-5-[4-[(R)-amino(4,5-dichloro-2-hydroxyphenyl)methyl]piperidine-1-carbonyl] pyrrolidin-2-one trifluoroacetic acid]
IC50 (hERG channel): > 30 µM

IC50 (Kv1.3 potassium channel): < 500 nM
Structure (SMILES): N[C@@H](c1cc(Cl)c(Cl)cc1O)C1CCN(C(=O)[C@@H]2CC[C@H](O)C2)CC1 (single isomer, unassigned; isomer 2) [Compound 179]
IC50 (hERG channel): < 30 µM

IC50 (Kv1.3 potassium channel): < 500 nM
Structure (SMILES): N[C@@H](c1cc(Cl)c(Cl)cc1O)C1CCN(C(=O)[C@@H]2CNC(=O)C2)CC1 [Compound 224, (4S)-4-[4-[(R)-amino(4,5-dichloro-2-hydroxyphenyl)methyl]piperidine-1-carbonyl] pyrrolidin-2-one trifluoroacetic acid]
IC50 (hERG channel): > 30 µM

IC50 (Kv1.3 potassium channel): < 500 nM
Structure (SMILES): O=C([C@@H]1CCNC1)N1CCC(C(O)c2cc(Cl)c(Cl)cc2O)CC1 (stereo partly drawn) [Compound 101, 4,5-dichloro-2-[hydroxy([1-[(3R)-pyrrolidine-3-carbonyl]piperidin-4-yl])methyl]phenol]
IC50 (hERG channel): > 30 µM

IC50 (Kv1.3 potassium channel): < 500 nM
Structure (SMILES): Cc1cc(O)c([C@H](N)C2CCN(C(=O)[C@@H]3CCNC3)CC2)cc1Cl [Compound 237, (4-((R)-amino(5-chloro-2-hydroxy-4-methylphenyl)methyl)piperidin-1-yl)((R)-pyrrolidin-3-yl)methanone trifluoroacetic acid]
IC50 (hERG channel): > 30 µM

IC50 (Kv1.3 potassium channel): < 500 nM
Structure (SMILES): COc1ccc(C(=O)N2CCC([C@@H](N)c3cc(Cl)c(C)cc3O)CC2)cn1 [Compound 243, 2-[(R)-amino[1-(6-methoxypyridine-3-carbonyl)piperidin-4-yl]methyl]-4-chloro-5-methylphenol trifluoroacetic acid]
IC50 (hERG channel): < 30 µM

IC50 (Kv1.3 potassium channel): < 500 nM
Structure (SMILES): N[C@@H](c1cc(Cl)c(Cl)cc1O)C1CCN(c2cc[nH]c(=O)c2)CC1 [Compound 180, 4-[4-[(R)-amino(4,5-dichloro-2-hydroxyphenyl)methyl]piperidin-1-yl]-1,2-dihydropyridin-2-one Trifluoroacetic Acid]
IC50 (hERG channel): > 30 µM

IC50 (Kv1.3 potassium channel): < 500 nM
Structure (SMILES): N[C@@H](c1cc(Cl)c(Cl)cc1O)C1CCN(C(=O)Cc2cn[nH]c2)CC1 [Compound 162, 1-[4-[(R)-amino(4,5-dichloro-2-hydroxyphenyl)methyl]piperidin-1-yl]-2-(1H-pyrazol-4-yl)ethan-1-one trifluoroacetic acid]
IC50 (hERG channel): > 30 µM

IC50 (Kv1.3 potassium channel): < 500 nM
Structure (SMILES): CO[C@H](CO)C(=O)N1CCC([C@@H](N)c2cc(Cl)c(Cl)cc2O)CC1 [Compound 168, (2R)-1-[4-[(R)-amino(4,5-dichloro-2-hydroxyphenyl)methyl]piperidin-1-yl]-3-hydroxy-2-methoxypropan-1-one trifluoroacetic acid]
IC50 (hERG channel): > 30 µM
